Reference: ChEMBL document CHEMBL1649219, “Imidocarb dipropionate clears persistent Babesia caballi infection with elimination of transmission potential” (Antimicrob Agents Chemother, 2009)
Activity calls are given as the source filed them.

Assays:
Type in all cases: functional, organism-based
Parameters in all cases: dose 4 mg/kg
Babesia caballi [1] = assay: Antiparasitic activity against Babesia caballi receiving blood from 4 times 4 mg/kg, im compound treated donor horse infected with Babesia caballi assessed as reduction in parasite specific antibodies measured after 100 days post-parasite transmission by C-ELISA
Babesia caballi [2] = assay: Antiparasitic activity against Babesia caballi infected in horse assessed as reduction in parasite specific antibodies at 4 mg/kg, im dosed 4 times at 72 hrs intervals administered 70 days postinfection measured 201 days post dose by C-ELISA
Babesia caballi [3] = assay: Antiparasitic activity against Babesia caballi receiving ticks from 4 times 4 mg/kg, im compound treated donor horse infected with Babesia caballi assessed as reduction in parasite specific antibodies measured after 100 days post-parasite transmission by C-ELISA
Babesia caballi [4] = assay: Antiparasitic activity against Babesia caballi infected in horse assessed as reduction in parasite level at 4 mg/kg, im dosed 4 times at 72 hrs intervals administered 70 days postinfection and measured 5 days post last dose by quantitative PCR
Babesia caballi [5] = assay: Antiparasitic activity against Babesia caballi infected in horse assessed as reduction in parasite specific antibodies at 4 mg/kg, im dosed 4 times at 72 hrs intervals administered 70 days postinfection measured 56 days post dose by complement fixation assay
Babesia caballi [6] = assay: Antiparasitic activity against Babesia caballi receiving blood from 4 times 4 mg/kg, im compound treated donor horse infected with Babesia caballi assessed as reduction in parasite level measured after 100 days post-parasite transmission by nested PCR
Babesia caballi [7] = assay: Antiparasitic activity against Babesia caballi infected in horse assessed as reduction in parasite specific antibodies at 4 mg/kg, im dosed 4 times at 72 hrs intervals administered 70 days postinfection measured 222 days post dose by immunoblot
Babesia caballi [8] = assay: Antiparasitic activity against Babesia caballi receiving ticks from 4 times 4 mg/kg, im compound treated donor horse infected with Babesia caballi assessed as reduction in parasite level measured after 100 days post-parasite transmission by nested PCR
Babesia caballi [9] = assay: Antiparasitic activity against Babesia caballi infected in horse assessed as reduction in parasite level at 4 mg/kg, im dosed 4 times at 72 hrs intervals administered 70 days postinfection and measured 5 days post last dose by nested PCR

Measured: Activity

O=C(Nc1cccc(C2=NCCN2)c1)Nc1cccc(C2=NCCN2)c1
active: all assays above
